# Assay results: BindingDB's records for doi:10.3109/14756360903049042 (Medical University of Bialystok, 2010)
# Molecular target: Serine protease 1 (Homo sapiens, UniProt P07477)
# Assay: Amidolytic Activity Assay (Trypsin)
# Details: pH 7.5
# Method: Determination of amidolytic activity was performed as described previously [Okada et al., Chem. Pharm. Bull., 36:1289-1297]. Detailed description of the method is given below. […]
# Sequence of Serine protease 1 (P07477 whole entry): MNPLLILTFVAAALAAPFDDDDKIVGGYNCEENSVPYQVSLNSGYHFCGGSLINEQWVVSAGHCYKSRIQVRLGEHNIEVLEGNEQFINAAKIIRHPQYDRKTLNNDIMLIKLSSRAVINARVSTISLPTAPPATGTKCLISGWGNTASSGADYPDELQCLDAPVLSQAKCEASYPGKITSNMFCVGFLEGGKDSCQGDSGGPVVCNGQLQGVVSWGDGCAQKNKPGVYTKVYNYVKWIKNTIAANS
row,Structure (SMILES),Ki [µM]
1,C[C@H](NC(=O)[C@H](N)CO)C(=O)N[C@@H](CCCNC(=N)N)C(=O)NCCCCCCCN [H-D-Ser-Ala-Arg-NH-(CH2)7-NH2 (6)],30
2,C[C@H](NC(=O)[C@H](N)CO)C(=O)N[C@@H](CCCNC(=N)N)C(=O)NCCCCCCCCN [H-D-Ser-Ala-Arg-NH-(CH2)8-NH2 (7)],10
3,C[C@H](NC(=O)[C@H](N)CO)C(=O)N[C@@H](CCCNC(=N)N)C(=O)NCCCCCCCCCN [H-D-Ser-Ala-Arg-NH-(CH2)9-NH2 (8)],5

# Next, values leading:
row,Ki [µM],Structure (SMILES)
1,15,C[C@H](NC(=O)[C@H](N)CO)C(=O)N[C@@H](CCCNC(=N)N)C(=O)NCCCO [H-D-Ser-Ala-Arg-NH-(CH2)3-OH (10)]
2,10,C[C@H](NC(=O)[C@H](N)CO)C(=O)N[C@@H](CCCNC(=N)N)C(=O)NCCCCO [H-D-Ser-Ala-Arg-NH-(CH2)4-OH (11)]
3,2.5,C[C@H](NC(=O)[C@H](N)CO)C(=O)N[C@@H](CCCNC(=N)N)C(=O)NCCCCCCN [H-D-Ser-Ala-Arg-NH-(CH2)6-NH2 (5)]

# Molecular target: Plasminogen (Homo sapiens, UniProt P00747)
# Assay: Amidolytic Activity Assay (Plasmin)
# Details: pH 7.4
# Method: Determination of amidolytic activity was performed as described previously [Okada et al., Chem. Pharm. Bull., 36:1289-1297]. Detailed description of the method is given below. To 0.2 cm3 of examined compound (1−11; 0.15 M NaCl as control), buffer, and 0.1 cm^3 of enzyme solution was added: tris buffer−0.5 cm^3 (pH = 7.4); enzyme: plasmin (0.4 unit/cm^3); synthetic substrate: S-2251 (0.2 cm^3, 3 mM/dm^3).
# Sequence of Plasminogen (P00747 97-580 limits assumed): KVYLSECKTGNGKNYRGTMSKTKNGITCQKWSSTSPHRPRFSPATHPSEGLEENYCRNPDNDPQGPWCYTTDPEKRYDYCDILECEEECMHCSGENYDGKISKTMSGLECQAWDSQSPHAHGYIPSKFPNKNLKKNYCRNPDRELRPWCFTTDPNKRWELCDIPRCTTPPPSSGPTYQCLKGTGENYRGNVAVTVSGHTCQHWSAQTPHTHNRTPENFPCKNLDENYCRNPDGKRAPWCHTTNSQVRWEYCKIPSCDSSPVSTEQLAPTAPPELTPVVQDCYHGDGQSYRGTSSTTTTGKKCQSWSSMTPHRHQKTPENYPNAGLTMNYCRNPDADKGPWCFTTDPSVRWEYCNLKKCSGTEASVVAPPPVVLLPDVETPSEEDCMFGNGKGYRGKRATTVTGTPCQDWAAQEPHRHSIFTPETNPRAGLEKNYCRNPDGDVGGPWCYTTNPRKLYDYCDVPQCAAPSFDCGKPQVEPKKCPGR
# Sequence of Plasminogen (P00747 581-810 limits assumed): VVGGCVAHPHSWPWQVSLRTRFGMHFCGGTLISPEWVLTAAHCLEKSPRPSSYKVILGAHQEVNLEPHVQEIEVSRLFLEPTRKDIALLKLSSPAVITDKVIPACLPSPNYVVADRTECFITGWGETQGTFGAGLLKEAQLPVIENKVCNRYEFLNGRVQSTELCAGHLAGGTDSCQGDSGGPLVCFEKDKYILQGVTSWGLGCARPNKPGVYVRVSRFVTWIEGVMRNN
row,Structure (SMILES),Ki [µM]
1,C[C@H](NC(=O)[C@H](N)CO)C(=O)N[C@@H](CCCNC(=N)N)C(=O)NCCCCCN [H-D-Ser-Ala-Arg-NH-(CH2)5-NH2 (4)],37
2,C[C@H](NC(=O)[C@H](N)CO)C(=O)N[C@@H](CCCNC(=N)N)C(=O)NCCCCCCCN [H-D-Ser-Ala-Arg-NH-(CH2)7-NH2 (6)],364
3,C[C@H](NC(=O)[C@H](N)CO)C(=O)N[C@@H](CCCNC(=N)N)C(=O)NCCCCCCCCCN [H-D-Ser-Ala-Arg-NH-(CH2)9-NH2 (8)],90

# Next, values leading:
row,Ki [µM],Structure (SMILES)
1,1090,C[C@H](NC(=O)[C@H](N)CO)C(=O)N[C@@H](CCCNC(=N)N)C(=O)NCCCO [H-D-Ser-Ala-Arg-NH-(CH2)3-OH (10)]
2,727,C[C@H](NC(=O)[C@H](N)CO)C(=O)N[C@@H](CCCNC(=N)N)C(=O)NCCO [H-D-Ser-Ala-Arg-NH-(CH2)2-OH (9)]
3,545,C[C@H](NC(=O)[C@H](N)CO)C(=O)N[C@@H](CCCNC(=N)N)C(=O)NCCCCO [H-D-Ser-Ala-Arg-NH-(CH2)4-OH (11)]
4,181,C[C@H](NC(=O)[C@H](N)CO)C(=O)N[C@@H](CCCNC(=N)N)C(=O)NCCCCCCN [H-D-Ser-Ala-Arg-NH-(CH2)6-NH2 (5)]
